Measured values taken from patent US5892018A, “DNA sequences encoding a brain sodium channel protein” (priority 1997, dated 1999).
Ends that are not written are not given here.

Molecular target: T1, BNC1 (Homo sapiens, UniProt Q16515)
T1 construct: a 1539-bp open reading frame extending to the 3' stop codon; expressed in transfected cells; host or cells: Xenopus laevis oocytes, nuclear injection of BNC1 cDNA in pMT3
T1 sequence (Q16515 1-512 T495A): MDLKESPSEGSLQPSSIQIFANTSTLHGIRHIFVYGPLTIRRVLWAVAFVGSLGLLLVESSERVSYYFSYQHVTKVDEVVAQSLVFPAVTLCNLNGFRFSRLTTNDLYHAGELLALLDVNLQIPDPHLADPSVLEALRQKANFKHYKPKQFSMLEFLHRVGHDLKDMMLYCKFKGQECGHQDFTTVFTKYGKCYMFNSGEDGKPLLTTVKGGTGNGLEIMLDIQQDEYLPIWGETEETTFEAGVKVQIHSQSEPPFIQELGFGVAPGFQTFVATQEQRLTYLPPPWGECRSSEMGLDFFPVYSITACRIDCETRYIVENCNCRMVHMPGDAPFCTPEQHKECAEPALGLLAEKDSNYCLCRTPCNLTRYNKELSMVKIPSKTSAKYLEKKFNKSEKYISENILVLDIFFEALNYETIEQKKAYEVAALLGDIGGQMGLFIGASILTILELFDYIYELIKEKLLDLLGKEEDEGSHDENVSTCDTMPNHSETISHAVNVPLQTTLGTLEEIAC
Test: Two-electrode voltage clamp of Xenopus oocytes expressing BNC1
Format: cell-based
Details: for activation of BNC1 current by agonist peptide: peptide added to bathing solution at 1-30 μM
Protocol: Expression of BNC1 in Xenopus laevis Oocytes--BNC1 was expressed in Xenopus oocytes by nuclear injection of BNC1 cDNA cloned into pMT3 (0.2-0.3 ng). Control oocytes were injected with H2 O. α-, β-, and γhENaC (αβγhENaC) were expressed as described previously. Oocytes were maintained at 18° C. in modified Barth's solution, and current was measured by two-electrode voltage clamp 1 day after injection. During voltage clamp, oocytes were bathed in 116 mM NaCl, 2 mM KCl, 0.4 mM CaCl2, 1 mM Mg Cl2, 5 mM Hepes (pH 7.4 with NaOH). To determine ionic selectivity, NaCl was replaced with LiCl or KCl. Current-voltage relationships were determined by stepping from a holding potential of -60 mV to potentials between -100 and +40 mV for 1 second. Amiloride-sensitive current was obtained by subtracting current during exposure to a maximal concentration of amiloride (100 μM) from current prior to amiloride addition. Phe-Met-Arg-Phe-NH2 (FMRF-am-ide), Phe-Leu-Phe-Gln-Pro-Gln-Arg-Phe-NH2 (F-8-F-amide), and Ala-Gly-Glu-Gly-Leu-Ser-Ser-Pro-Phe-Trp-Ser-Leu-Ala-Ala-Pro-Gln-Arg-Phe-NH2 (A-18-F-amide) were obtained from Sigma and were added to the bathing solution at 1-30 μM.

Row | Compound | IC50 (BNC1 expressed in Xenopus oocytes, plotted as fraction of response to 100 μM amiloride, n=4 (FIG. 8), read-out: half-maximal inhibition of Na+ current) | inward current reversibly inhibited by amiloride (amiloride-sensitive current) (BNC1 in Xenopus oocytes, holding potential -60 mV, amiloride 100 μM, n=12 (FIG. 6)) | activation of BNC1 current by agonist peptide (BNC1 in Xenopus oocytes)
1 | N=C(N)NC(=O)c1nc(Cl)c(N)nc1N [amiloride] | 147 ± 23 nM | 14.0±2.7 nA | –
2 | Ala-Gly-Glu-Gly-Leu-Ser-Ser-Pro-Phe-Trp-Ser-Leu-Ala-Ala-Pro-Gln-Arg-Phe-NH2 (AGEGLSSPFWSLAAPQRF-NH2) [A-18-F-amide, related mammalian peptide, obtained from Sigma] | – | – | not activated
3 | CC(C)C[C@H](NC(=O)[C@@H](N)Cc1ccccc1)C(=O)N[C@@H](Cc1ccccc1)C(=O)N[C@@H](CCC(N)=O)C(=O)N1CCC[C@H]1C(=O)N[C@@H](CCC(N)=O)C(=O)N[C@@H](CCCNC(=N)N)C(=O)N[C@@H](Cc1ccccc1)C(N)=O [F-8-F-amide, Phe-Leu-Phe-Gln-Pro-Gln-Arg-Phe-NH2] | – | – | not activated
